According to US20230000869A1, “NOVEL ALK2 INHIBITORS AND METHODS FOR INHIBITING BMP SIGNALING” (The Brigham and Women's Hospital, Inc., priority 2017, published 2023):
pIC50: −log10 of the molar value. Counter-ions that a name gives are not always drawn.

What was measured:
ALK2 = target: T1, ALK2 (Mus musculus, UniProt P37172); experiment: Luciferase reporter gene assay for ALK2 activity (C2C12 BRE-Luc SMAD1/5/8 reporter, BMP6 agonist); assay type: cell-based; settings: BMP6 50 ng/mL
T1 construct: endogenous in cells; host or cells: C2C12-BRE (BRE-Luc reporter line, G418 selection)
T1 sequence (P37172 21-509): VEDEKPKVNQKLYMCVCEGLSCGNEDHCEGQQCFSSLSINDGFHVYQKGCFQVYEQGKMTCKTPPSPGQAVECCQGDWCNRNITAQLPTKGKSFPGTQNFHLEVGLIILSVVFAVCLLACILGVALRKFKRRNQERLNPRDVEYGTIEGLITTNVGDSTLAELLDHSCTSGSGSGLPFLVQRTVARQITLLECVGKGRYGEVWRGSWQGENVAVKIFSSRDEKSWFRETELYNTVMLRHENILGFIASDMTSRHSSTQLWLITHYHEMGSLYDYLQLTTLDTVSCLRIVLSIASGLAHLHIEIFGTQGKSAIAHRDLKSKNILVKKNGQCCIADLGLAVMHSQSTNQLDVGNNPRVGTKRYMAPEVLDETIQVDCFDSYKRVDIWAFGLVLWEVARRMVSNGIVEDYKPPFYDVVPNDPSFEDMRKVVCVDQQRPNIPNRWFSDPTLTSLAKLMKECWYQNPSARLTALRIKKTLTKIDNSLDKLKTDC
Description: (§1) All cell lines were cultured in DMEM, supplemented with […] and 1% Pen/Strep. All media reagents were obtained from Gibco. BMP6, BMP9, and TGFβ were obtained from R&D Systems. C2C12-BRE and HEK293T-SBE were kept in selection with 400 ug/mL G418 from Invivogen.
(§2) In this reporter gene cell based ALK2 and TGFβ assay, the C2C12 cell line was employed for the measurement of ALK2 activity, using a BRE-Luc SMAD1/5/8 reporter and BMP6 as the agonist. The HEK293T cell line was employed to measure TGFβ activity, using a SBE-Luc SMAD2/3 reporter and TGFβ as the agonist. Luciferase reporter assays were read using Promega Steady-Glo Luciferase Assay System.
(§3) Cells were plated in 96 well white clear bottom assay plates at 10 k cells/well for C2C12-BRE, 15 k cells/well for HEK293-SBE in DMEM containing 2% FBS 1% P/S. Cells were given a minimum of 4 hours in incubator at 37° C./5% CO2 to adhere prior to further treatment. Compounds were diluted in DMSO to a 10-point dilution curve and added to the plate to reach the following final concentrations: 10000, 3000, 1000, 300, 100, and 30 nM in the HEK293-SBE assay and 1000, 300, 100, 30, 10, 3, 1, 0.3 nM in the C2C12-BRE assay. Negative and positive control wells received 2 μL DMSO as vehicle treatment. Plates were returned to incubator for 45 minutes and then BMP6 and TGFB were added to a final concentration of 50 ng/mL and 5 ng/mL, respectively. Plates were returned to the incubator and left overnight. After a minimum of 18 hours post BMP6/TGFβ addition, the plates were read using Promega Steady-Glo Luciferase Assay System. A 1:1 mixture of prepared steady-glo and phenol free DMEM was prepared, and 50 μL/well was added to the assay plates whose media had been flicked off. Plates were given 10 minutes post steady-glo addition before luminescence was read on a Spectramax M5e microplate reader. Negative control wells were averaged and subtracted from all other wells on the plate. Inhibition was calculated as the percent of signal loss compared to the averaged positive control wells.

TGFβ = experiment: Luciferase reporter gene assay for TGFβ activity (HEK293T SBE-Luc SMAD2/3 reporter, TGFβ agonist); assay type: cell-based; settings: TGFβ 5 ng/mL
Description: as §1, §2, §3

pIC50 (ALK2)	pIC50 (TGFβ; Homo sapiens, HEK-293T)	pIC50 (TGFβ)	Compound
7.66	6.29		Cc1ccc2nccc(-c3cnn4cc(N5CCC(N6CCN(C)CC6)CC5)cnc34)c2c1 [Compound 185]
7.24	6.43		COc1cc2c(-c3cnn4cc(N5CCC(N)CC5)cnc34)ccnc2cc1F [Compound 186]
7.43	7.49		Cc1cc(-c2cnn3cc(N4CCC(N)CC4)cnc23)c2ccccc2n1 [Compound 187]
7.30	6.90		COc1cc2c(-c3cnn4cc(N5CCC(N(C)C)CC5)cnc34)ccnc2cc1F [Compound 188]
6.86	7.04		Cc1cc(-c2cnn3cc(N4CCC(N(C)C)CC4)cnc23)c2ccccc2n1 [Compound 189]
7.51	6.89		COc1cc2c(-c3cnn4cc(N5CCC(N6CCC(N(C)C)C6)CC5)cnc34)ccnc2cc1F (centres unmarked) [Compound 190]
7.05	6.74		COc1cc2c(-c3cnn4cc(N5CCOCC5)cnc34)ccnc2cc1F [Compound 192]
6.93	6.35		COc1cc2c(-c3cnn4cc(N5CC(N6CCOCC6)C5)cnc34)ccnc2cc1F [Compound 193]
6.66	6.86		Cc1cc(-c2cnn3cc(N4CC(N5CCOCC5)C4)cnc23)c2ccccc2n1 [Compound 194]
6.53	6.54		COc1cc2c(-c3cnn4cc(N5CCN(C)CC5)cnc34)ccnc2cc1F [Compound 195]
6.03	6.90		Cc1cc(-c2cnn3cc(N4CCN(C)CC4)cnc23)c2ccccc2n1 [Compound 196]
6.40	6.21		Cc1cc(-c2cnn3cc(N4CCOCC4)cnc23)c2ccccc2n1 [Compound 197]
6.52	6.55		Cc1cc(-c2cnn3cc(N4CCN(CC(C)(C)O)CC4)cnc23)c2ccccc2n1 [Compound 198]
7.64	6.30		COc1cc2c(-c3cnn4cc(N5CCN(C6CN(C)C6)CC5)cnc34)ccnc2cc1F [Compound 199]
7.03	6.49		COc1cc2c(-c3cnn4cc(N5CCN(CC(C)(C)O)CC5)cnc34)ccnc2cc1F [Compound 200]
7.89	6.49		COc1cc2c(-c3cnn4cc(N5CC(CC#N)(N6CCN(C)CC6)C5)cnc34)ccnc2cc1F [Compound 201]
6.29	6.44		COc1cc2c(-c3cnn4cc(N5CCN(c6ccncc6)CC5)cnc34)ccnc2cc1F [Compound 202]
7.59	< 5.52		COc1cc2c(-c3cnn4cc(N5CCN(c6ccnc(C)n6)CC5)cnc34)ccnc2cc1F [Compound 203]
7.96	< 5.52		COc1cc2c(-c3cnn4cc(N5CCN(c6nnc(C)s6)CC5)cnc34)ccnc2cc1F [Compound 204]
6.23	< 5.52		CN1CCN(C2CCN(c3cnc4c(-c5ccnc6cccnc56)cnn4c3)CC2)CC1 [Compound 205]
6.45	6.09		COc1cc2c(-c3cnn4cc(N5CCC(N6CCN(C)CC(F)(F)C6)CC5)cnc34)ccnc2cc1F [Compound 206]
6.48	6.67		Cc1cc(-c2cnn3cc(N4CCC(N5CCN(C)CC(F)(F)C5)CC4)cnc23)c2ccccc2n1 [Compound 207]
6.98	6.16		COc1ccc2nccc(-c3cnn4cc(N5CCC(N6CCCN(C)CC6)CC5)cnc34)c2c1 [Compound 208]
7.82	7.21		COc1cc2c(-c3cnn4cc(N5CC(c6ccncc6)C5)cnc34)ccnc2cc1F [Compound 209]
7.77	7.04		Cc1cc(-c2cnn3cc(N4CC(c5ccncc5)C4)cnc23)c2ccccc2n1 [Compound 210]

pIC50 (ALK2)	pIC50 (TGFβ; Homo sapiens, HEK-293T)	pIC50 (TGFβ)	Compound
7.29	6.38		COc1cc2c(-c3cnn4cc(N5CCC(C(C)(C)N)CC5)cnc34)ccnc2cc1F [Compound 211]
7.42	6.12		CS(=O)(=O)c1cccc(-c2cnn3cc(N4CCNCC4)cnc23)c1 [Compound 212]
> 9.00	> 9.00		CS(=O)(=O)c1cccc(-c2cnn3cc(N4CCN(C5CCNCC5)CC4)cnc23)c1 [Compound 213, 3-(3-(methylsulfonyl)phenyl)-6-(4-(piperidin-4-yl)piperazin-1-yl)pyrazolo[1,5-a]pyrimidine trihydrochloride]
< 6.00	< 6.00		COc1cc2c(-c3c(N)nn4cc(N5CCC(N6CCN(C)CC6)CC5)cnc34)ccnc2cc1F [Compound 214, 3-(7-fluoro-6-methoxy-4-quinolyl)-6-[4-(4-methylpiperazin-1-yl)-1-piperidyl]pyrazolo[1,5-a]pyrimidin-2-amine]
7.47	6.85		COc1cc2c(-c3cnn4cc(N5CCC(N6C[C@@H]7C[C@H]6CN7C)CC5)cnc34)ccnc2cc1F [Compound 215]
7.62		7.36	COc1cc2c(-c3cnn4cc(N5CCC6(CC5)CN(C)C6)cnc34)ccnc2cc1F [Compound 216]
7.48	6.94		COc1cc2c(-c3cnn4cc(N5CCC6(CCN(C)CC6)CC5)cnc34)ccnc2cc1F [Compound 217]
7.59	6.85		COc1cc2c(-c3cnn4cc(N5C[C@H]6CN(C)C[C@H]6C5)cnc34)ccnc2cc1F [Compound 218]
6.42	< 5.52		CN1CCN(C2CCN(c3cnc4c(-c5ccnc(N6CCOCC6)c5)cnn4c3)CC2)CC1 [Compound 219]
< 6.00	< 6.00		COc1cc2c(-c3cnn4cc(N5CCC(N6CCN(C)CC6)CC5)cnc34)cc(=O)[nH]c2cc1F [Compound 220]
8.22	6.56		COc1ccc2nccc(-c3cnn4cc(N5CC(N6CCN(C)CC6)C5)cnc34)c2c1 [Compound 221]
7.85	7.15		Cc1cc(-c2cnn3cc(N4CC(N5CCN(C)CC5)C4)cnc23)c2ccccc2n1 [Compound 222]
6.57	< 5.52		Cc1cc(-c2cnn3cc(N4CCC(N5CCN(C)CC5)CC4)cc(OC4CCOCC4)c23)c2ccccc2n1 [Compound 223]
< 6.00	< 5.52		COc1cc2c(-c3cnn4cc(N5CCC(N6CCN(C)CC6)CC5)cc(OC5CCOCC5)c34)ccnc2cc1F [Compound 224]
< 6.00	< 5.52		CN1CCN(C2CCN(c3cc(OC4CCOCC4)c4c(-c5cn[nH]c5)cnn4c3)CC2)CC1 [Compound 225]
7.74	< 6.00		Cc1cc2nccc(-c3cnn4cc(N5CCC(N6CCN(C)CC6)CC5)cnc34)c2s1 [Compound 226]
6.04	6.08		Cc1cc2nccc(-c3cnn4cc(N5CCC(N6CCN(C)CC6)CC5)cnc34)c2[nH]1 [Compound 227]
6.32	6.22		CN1CCN(C2CCN(c3cnc4c(-c5ccnc6cc[nH]c56)cnn4c3)CC2)CC1 [Compound 228]
7.28	8.05		CN1CCN(C2CCN(c3cnc4c(-c5cc(N)nc6ccccc56)cnn4c3)CC2)CC1 [Compound 229]
7.34	6.30		COc1cc2c(-c3cnn4cc(N5CCC(N6CCN(C)CC6)CC5)ccc34)ccnc2cc1F [Compound 230]
7.15	6.23		Cc1cc2nccc(-c3cnn4cc(N5CCC(N6CCN(C)CC6)CC5)cnc34)c2cc1C [Compound 233]
< 6.00	< 6.00		CN1CCN(C2CCN(c3cnc4c(-c5ccnc6ccc(C#N)cc56)cnn4c3)CC2)CC1 [Compound 234]
7.60	< 6.00		CN1CCN(C2CCN(c3cnc4c(-c5ccnc6ccc(C(F)(F)F)cc56)cnn4c3)CC2)CC1 [Compound 235]
6.01	6.57		CN1CCN(C2CCN(c3cnc4c(-c5cc(C(F)(F)F)nc6ccccc56)cnn4c3)CC2)CC1 [Compound 236]
